Results published in paper PMC4676410 (Journal of medicinal chemistry, 2015).
Several values for one entry are separate records, joined by “and”; a condition that tells them apart may be missing. Identical values can stand only once. Like-named read-outs stand apart in the source and are kept apart here.

Legend:
MT-2 cells = assay: Cytotoxicity in MT-2 cells; assay type: cell-based
U87-CD4-CXCR4 cells = assay: Cytotoxicity in U87-CD4-CXCR4 cells; assay type: cell-based
U87-CD4-CCR5 cells = assay: Cytotoxicity in U87-CD4-CCR5 cells; assay type: cell-based
A-MLV = assay: microbe, parasite or virus in culture; assay type: cell-based; conditions: control, A-MLV envelope pseudovirus
HIV-1 integrase = HIV-1 integrase (Human immunodeficiency virus type 1 group M subtype B, UniProt P04585); assay: HIV-1 integrase assay; assay type: biochemical; conditions: read-out: IC50, HIV-1 integrase assay
[1] = system: laboratory-adapted HIV-1 strains; assay: microbe, parasite or virus in culture; assay type: cell-based
HIV-1 Env pseudoviruses [2] = conditions: data previously published ref 19, cited from earlier work
HIV-1IIIB = assay: CD4-dependent CXCR4-tropic HIV-1 cell-cell transmission assay; assay type: cell-based; conditions: read-out: IC50, CXCR4-tropic HIV-1 cell-cell transmission; Ghost X4/R5 and H9/HIV-1IIIB, p24
TZM-bl cells = assay: Cytotoxicity in TZM-bl cells; assay type: cell-based
[3] = system: lab-adapted and primary HIV-1 isolates; assay: microbe, parasite or virus in culture; assay type: cell-based; conditions: PBMC
VSV-G = assay: microbe, parasite or virus in culture; assay type: cell-based; conditions: control, VSV-G envelope pseudovirus
HIV-1ADA = assay: CD4-dependent CCR5-tropic HIV-1 cell-cell transmission assay; assay type: cell-based; conditions: read-out: IC50, CCR5-tropic HIV-1 cell-cell transmission; Ghost X4/R5 and MOLT-4/HIV-1ADA, p24
[4] = system: fusion between MAGI-CCR5 and HL 2/3 cells; assay: HIV-1 cell-cell fusion assay; assay type: cell-based; conditions: read-out: IC50, cell-cell fusion assay; MAGI-CCR5 and HL 2/3 cells
[5] = system: HIV-1HXB2 (CXCR4-tropic) pseudovirus; assay: Single-cycle infection assay in U87-CD4-CXCR4 cells; conditions: U87-CD4-CXCR4, HIV-1HXB2
[6] = system: HIV-1ADA (CCR5-tropic) pseudovirus; assay: Single-cycle infection assay in U87-CD4-CCR5 cells; conditions: U87-CD4-CCR5, HIV-1ADA
YU2 core gp120 = assay: SPR: binding of YU2 core gp120 to captured mAb 17b in presence of compounds; design: species or system HIV-1; conditions: sCD4 15-fold excess, compounds 50-fold excess
HIV-1 Env pseudoviruses [7] = assay type: cell-based
PBMC = assay: Cytotoxicity in PBMCs; assay type: cell-based, human
[8] = molecular target: HIV-1 reverse transcriptase (RT) (Human immunodeficiency virus type 1 group M subtype B, UniProt P12497); assay: HIV-1 reverse transcriptase

CC1(C)CC(NC(=O)C(=O)Nc2ccc(Cl)cc2)CC(C)(C)N1 [NBD-556] gave a CC50 (MT-2 cells) of over 280 µM, a CC50 (U87-CD4-CXCR4 cells) of about 60 µM and a CC50 (U87-CD4-CCR5 cells) of about 60 µM. For the same molecule, the IC50 (A-MLV) was over 60 µM, the IC50 (HIV-1 integrase) was over 200 µM and the IC50 ([1]; RT inhibitor-resistant isolate AZT-R, subtype B, MT-2, X4) was 58 ± 14.3 µM. The IC50 ([1]; fusion inhibitor-resistant isolate pNL4-3 gp41(36G)V38E,N42S, subtype B, MT-2, X4) was 11 ± 0.9 µM, the IC50 ([1]; laboratory strain MN, subtype B, MT-2, X4) was 15.9 ± 1.6 µM and the IC50 ([1]; laboratory strain RF, subtype B, MT-2, R5X4) was 18.7 ± 1.3 µM. For the same molecule, the IC50 ([1]; laboratory strain SF2, subtype B, MT-2, R5X4) was at least 118 µM, the IC50 ([1]; protease inhibitor-resistant isolate HIV-1RF/L-323-12-3, subtype B, MT-2, X4) was under 59 µM and the IC50 (HIV-1 Env pseudoviruses [2]; subtype A, NIH #11887, Q259env.w6) was 6.9 ± 0.9 µM. The IC50 (HIV-1 Env pseudoviruses [2]; subtype A/D, NIH #11901, QA790.204I.ENV.A4) was 12.3 ± 1.8 µM, the IC50 (HIV-1 Env pseudoviruses [2]; subtype A/D, NIH #11903, QA790.204I.ENV.C8) was 5 ± 1 µM and the IC50 (HIV-1 Env pseudoviruses [2]; subtype A/D, NIH #11904, QA790.204I.ENV.E2) was 7.1 ± 0.5 µM. The IC50 (HIV-1 Env pseudoviruses [2]; subtype B, NIH #11024, AC10.0, clone 29) was 8.9 ± 3 µM, the IC50 (HIV-1 Env pseudoviruses [2]; subtype B, NIH #11038, pCAAN5342 clone A2) was 2.4 ± 0.3 µM and the IC50 (HIV-1 Env pseudoviruses [2]; subtype B, NIH #11058, SC422661.8) was 4.8 ± 0.4 µM. The IC50 (HIV-1 Env pseudoviruses [2]; subtype B, NIH #11578, pWEAUd15.410.5017, R5X4-tropic) was 4.9 ± 0.8 µM, the IC50 (HIV-1 Env pseudoviruses [2]; subtype D, NIH #11913, QA465.59M.ENV.A1) was 4.8 ± 0.2 µM and the IC50 (HIV-1IIIB) was about 60 µM. It also gave a CC50 (TZM-bl cells) of about 60 µM, an IC50 ([3]; laboratory strain 89.6, subtype B, R5X4) of 4.8 ± 1 µM and an IC50 ([3]; laboratory strain BaL, subtype B, R5) of at least 118 µM. It also gave an IC50 ([3]; laboratory strain SF162, subtype B, R5) of 48.9 ± 7.3 µM, an IC50 ([3]; primary isolate 92US657, subtype B, R5) of 48 ± 1.65 µM and an IC50 ([3]; primary isolate 93MW959, subtype C, R5) of 57.2 ± 8.7 µM. It also gave an IC50 ([3]; primary isolate 93TH060, subtype E, R5) of over 45 µM, an IC50 ([3]; primary isolate RU570, subtype G, R5) of 19.5 ± 2.3 µM and an IC50 (VSV-G) of over 60 µM. For the same molecule, the IC50 (HIV-1ADA) was about 60 µM, the IC50 [4] was 6.5 µM and the IC50 [5] was 9.5 ± 0.6 µM. For the same molecule, the IC50 [6] was 7.4 ± 0.8 µM, the “enhancement of mAb 17b binding to YU2 core gp120 (in words)” value (YU2 core gp120) was “highest enhancement” and the IC50 (HIV-1 Env pseudoviruses [7]) was 11.5 µM and 9.4 µM. The IC50 (HIV-1 Env pseudoviruses [7]; TZM-bl, HIV-1HXB2) was 6.9 ± 0.9 µM, the “share of viruses showing sensitivity at ≤3 μM” value (HIV-1 Env pseudoviruses [7]; panel of 56 HIV-1 Env pseudoviruses) was 7% and the IC50 (HIV-1 Env pseudoviruses [7]; subtype A2/D, NIH #11906, QG393.60M.ENV.B7) was 3.5 ± 0.2 µM. It also gave an IC50 (HIV-1 Env pseudoviruses [7]; subtype A2/D, NIH #11907, QG393.60M.ENV.B8) of 3.6 ± 0.1 µM, an IC50 (HIV-1 Env pseudoviruses [7]; subtype A, KNH1144) of 20 ± 3.2 µM and an IC50 (HIV-1 Env pseudoviruses [7]; subtype A, NIH #11888, QB726.70M.ENV.C4) of 20.2 ± 6 µM. For the same molecule, the IC50 (HIV-1 Env pseudoviruses [7]; subtype A, NIH #11889, QB726.70M.ENV.B3) was 11.3 ± 2.5 µM, the IC50 (HIV-1 Env pseudoviruses [7]; subtype A, NIH #11890, QF495.23M.ENV.A1) was 13.6 ± 2.3 µM and the IC50 (HIV-1 Env pseudoviruses [7]; subtype A, NIH #11891, QF495.23M.ENV.A3) was 27.8 ± 9.3 µM. For the same molecule, the IC50 (HIV-1 Env pseudoviruses [7]; subtype A, NIH #11892, QF495.23M.ENV.B2) was 20.4 ± 7 µM, the IC50 (HIV-1 Env pseudoviruses [7]; subtype A/E, AA058) was 4.1 ± 0.8 µM and the IC50 (HIV-1 Env pseudoviruses [7]; subtype A/E, CM244) was 5.6 ± 0.8 µM. The IC50 (HIV-1 Env pseudoviruses [7]; subtype A/E, NIH #11603 (potential), CRF01_AE clone 269) was 10.7 ± 1.5 µM, the IC50 (HIV-1 Env pseudoviruses [7]; subtype A/G, NIH #11601, CRF02_AG clone 263) was 7 ± 2.2 µM and the IC50 (HIV-1 Env pseudoviruses [7]; subtype A/G, NIH #11602, CRF02_AG clone 266) was 4.6 ± 1.6 µM. The IC50 (HIV-1 Env pseudoviruses [7]; subtype A/G, NIH #11605, CRF02_AG clone 278) was 6.5 ± 1.1 µM, the IC50 (HIV-1 Env pseudoviruses [7]; subtype B, B41) was 4.5 ± 2 µM and the IC50 (HIV-1 Env pseudoviruses [7]; subtype B, NIH #11018, QH0692, clone 42) was 2 ± 0.6 µM. For the same molecule, the IC50 (HIV-1 Env pseudoviruses [7]; subtype B, NIH #11022, PVO, clone 4) was 3.5 ± 0.7 µM, the IC50 (HIV-1 Env pseudoviruses [7]; subtype B, NIH #11023, TRO, clone 11) was 4.1 ± 0.6 µM and the IC50 (HIV-1 Env pseudoviruses [7]; subtype B, NIH #11033, pWIT04160 clone 33) was 4.8 ± 0.8 µM. The IC50 (HIV-1 Env pseudoviruses [7]; subtype B, NIH #11035, PREJ04541 clone 67) was 3.4 ± 0.2 µM, the IC50 (HIV-1 Env pseudoviruses [7]; subtype B, NIH #11036, pRHPA4259 clone 7) was 4.3 ± 0.5 µM and the IC50 (HIV-1 Env pseudoviruses [7]; subtype B, NIH #11037, PTHR04156 clone 18) was 8.4 ± 2.4 µM. For the same molecule, the IC50 (HIV-1 Env pseudoviruses [7]; subtype B, NIH #11563, p1058_11.B11.1550, R5X4-tropic) was 1.9 ± 1 µM, the IC50 (HIV-1 Env pseudoviruses [7]; subtype C, NIH #11306, Du156, clone 12) was 5 ± 0.9 µM and the IC50 (HIV-1 Env pseudoviruses [7]; subtype C, NIH #11307, Du172, clone 17) was 4.8 ± 0.2 µM. The IC50 (HIV-1 Env pseudoviruses [7]; subtype C, NIH #11308, Du422, clone 1) was 6.1 ± 0.5 µM, the IC50 (HIV-1 Env pseudoviruses [7]; subtype C, NIH #11309, ZM197M.PB7) was 3.8 ± 0.3 µM and the IC50 (HIV-1 Env pseudoviruses [7]; subtype C, NIH #11310, ZM214M.PL15) was 4.1 ± 0.7 µM. For the same molecule, the IC50 (HIV-1 Env pseudoviruses [7]; subtype C, NIH #11311, ZM233M.PB6) was 6.6 ± 0.8 µM, the IC50 (HIV-1 Env pseudoviruses [7]; subtype C, NIH #11312, ZM249M.PL1) was 6.1 ± 0.3 µM and the IC50 (HIV-1 Env pseudoviruses [7]; subtype C, NIH #11313, ZM53M.PB12) was 14.6 ± 1 µM. For the same molecule, the IC50 (HIV-1 Env pseudoviruses [7]; subtype C, NIH #11314, ZM109F.PB4) was 6.2 ± 0.3 µM, the IC50 (HIV-1 Env pseudoviruses [7]; subtype C, NIH #11315, ZM135M.PL10a) was 2.2 ± 0.6 µM and the IC50 (HIV-1 Env pseudoviruses [7]; subtype C, NIH #11316, CAP45.2.00.G3) was 9.6 ± 0.3 µM. The IC50 (HIV-1 Env pseudoviruses [7]; subtype C, NIH #11317, CAP210.2.00.E8) was 5.3 ± 0.6 µM, the IC50 (HIV-1 Env pseudoviruses [7]; subtype C, NIH #11908, QB099.391 M.ENV.B1) was 5.7 ± 0.9 µM and the IC50 (HIV-1 Env pseudoviruses [7]; subtype C, NIH #11909, QB099.391 M.ENV.C8) was 3.6 ± 0.9 µM. The IC50 (HIV-1 Env pseudoviruses [7]; subtype C, NIH #11910, QC406.70M.ENV.F3) was 3.6 ± 0.9 µM, the IC50 (HIV-1 Env pseudoviruses [7]; subtype D, NIH #11911, QA013.70I.ENV.H1) was 9.4 ± 2.6 µM and the IC50 (HIV-1 Env pseudoviruses [7]; subtype D, NIH #11912, QA013.70I.ENV.M12) was 5.4 ± 0.3 µM. For the same molecule, the IC50 (HIV-1 Env pseudoviruses [7]; subtype D, NIH #11914, QA465.59M.ENV.D1) was 6.1 ± 0.5 µM, the IC50 (HIV-1 Env pseudoviruses [7]; subtype D, NIH #11916, QD435.100M.ENV.B5) was 4.4 ± 1 µM and the IC50 (HIV-1 Env pseudoviruses [7]; subtype D, NIH #11918, QD435.100M.ENV.E1) was 6.2 ± 1.7 µM. It also gave a CC50 (PBMC) of over 280 µM and an IC50 ([8]; read-out: IC50, HIV-1 reverse transcriptase (RT) assay) of over 200 µM.

In the case of Cc1cn([C@H]2C[C@H](N=[N+]=[N-])[C@@H](CO[P@](=O)(O)O[P@](=O)(O)OP(=O)(O)O)O2)c(=O)[nH]c1=O [AZT-TP], the IC50 [8] is reported as 0.008 µM.

Molecule Cc1nc(C(NC(=O)c2ccc(-c3ccc(Cl)cc3)[nH]2)C2CCCCN2)sc1CO (centres unmarked) [NBD-11021A, 5-(4-Chlorophenyl)-N-((5-(hydroxymethyl)-4-methylthiazol-2-yl)-(piperidin-2-yl)methyl)-1H-pyrrole-2-carboxamide] has an IC50 ([1]; MT-2, HIV-1IIIB) of 1.3 ± 0.2 µM and an IC50 [5] of 3 ± 0.4 µM.
